US12365655B2, “Compounds” (CTXT PTY LTD, priority 2018, dated 2025)

How the values were obtained:
TIP60-KAT5 = TIP60-KAT5 (Homo sapiens, UniProt Q92993); experiment: Acetyltransferase biochemical assay (AlphaScreen), KAT5
MOZ-KAT6A = MOZ-KAT6A (Homo sapiens, UniProt Q92794, A567V); experiment: Acetyltransferase biochemical assay (AlphaScreen), KAT6A
HBO-KAT7 = HBO-KAT7 (Homo sapiens, UniProt O95251); experiment: Acetyltransferase biochemical assay (AlphaScreen), KAT7
Chain of HBO-KAT7 (O95251 with tags, fused parts or gaps): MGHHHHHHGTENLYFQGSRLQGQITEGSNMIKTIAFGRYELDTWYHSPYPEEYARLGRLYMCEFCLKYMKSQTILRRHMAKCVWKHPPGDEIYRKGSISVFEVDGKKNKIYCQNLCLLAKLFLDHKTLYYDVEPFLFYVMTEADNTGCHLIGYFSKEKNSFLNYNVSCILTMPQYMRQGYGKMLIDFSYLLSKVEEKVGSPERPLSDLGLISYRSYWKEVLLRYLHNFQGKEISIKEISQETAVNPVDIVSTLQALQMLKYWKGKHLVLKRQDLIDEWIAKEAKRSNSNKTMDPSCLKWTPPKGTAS

Chain of MOZ-KAT6A (Q92794 with tags, fused parts or gaps A567V): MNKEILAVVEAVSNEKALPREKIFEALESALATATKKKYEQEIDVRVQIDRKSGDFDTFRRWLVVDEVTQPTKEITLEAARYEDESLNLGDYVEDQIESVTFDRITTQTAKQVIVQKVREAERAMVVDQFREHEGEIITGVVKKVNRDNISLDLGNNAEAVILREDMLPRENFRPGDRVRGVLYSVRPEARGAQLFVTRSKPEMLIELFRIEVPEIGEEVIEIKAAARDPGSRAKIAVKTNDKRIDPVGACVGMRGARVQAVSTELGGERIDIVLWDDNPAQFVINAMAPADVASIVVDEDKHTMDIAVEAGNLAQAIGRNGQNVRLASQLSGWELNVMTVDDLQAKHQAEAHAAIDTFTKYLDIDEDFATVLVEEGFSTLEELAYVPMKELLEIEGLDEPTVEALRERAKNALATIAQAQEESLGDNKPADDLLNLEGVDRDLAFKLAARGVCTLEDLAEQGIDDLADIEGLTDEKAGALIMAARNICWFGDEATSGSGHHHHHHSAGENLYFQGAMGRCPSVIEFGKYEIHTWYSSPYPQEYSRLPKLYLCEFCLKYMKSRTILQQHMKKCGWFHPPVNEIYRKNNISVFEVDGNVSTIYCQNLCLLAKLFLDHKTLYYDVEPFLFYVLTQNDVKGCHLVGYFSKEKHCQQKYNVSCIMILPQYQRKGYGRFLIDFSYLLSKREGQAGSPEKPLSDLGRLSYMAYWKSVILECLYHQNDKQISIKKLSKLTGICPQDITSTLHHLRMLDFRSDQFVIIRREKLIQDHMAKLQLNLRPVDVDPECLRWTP
Chain of TIP60-KAT5 (Q92993 with tags, fused parts or gaps isoform Q92993-2): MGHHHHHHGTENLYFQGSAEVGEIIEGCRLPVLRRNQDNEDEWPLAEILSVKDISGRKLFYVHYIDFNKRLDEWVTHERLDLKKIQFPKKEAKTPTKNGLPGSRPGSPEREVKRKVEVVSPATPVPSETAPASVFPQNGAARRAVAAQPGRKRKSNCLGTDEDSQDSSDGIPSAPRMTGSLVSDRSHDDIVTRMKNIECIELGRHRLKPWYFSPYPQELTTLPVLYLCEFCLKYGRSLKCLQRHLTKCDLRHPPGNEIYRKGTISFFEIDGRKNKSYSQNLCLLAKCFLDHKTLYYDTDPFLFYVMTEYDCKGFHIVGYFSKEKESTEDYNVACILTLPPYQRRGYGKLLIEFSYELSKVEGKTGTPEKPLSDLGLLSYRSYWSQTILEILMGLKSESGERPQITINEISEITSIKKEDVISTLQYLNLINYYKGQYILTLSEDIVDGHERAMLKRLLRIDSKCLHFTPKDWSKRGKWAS

Row | IC50 (TIP60-KAT5) [µM] | IC50 (MOZ-KAT6A) [µM] | IC50 (HBO-KAT7) [µM] | Structure (SMILES)
1 | > 125 | 46.5 | > 125 | CCc1ccc(OC)c(S(=O)(=O)Nc2noc3ccc(C(N)=O)cc23)c1 [Example 232, 3-((5-Ethyl-2-methoxyphenyl)sulfonamido)benzo[d]isoxazole-5-carboxamide]
2 | > 125 | 71.5 | 32.1 | Cc1ccc(S(=O)(=O)Nc2noc3cccc(Cl)c23)cc1 [Example 27, N-(4-chlorobenzo [d]isoxazol-3-yl)-4-methylbenzenesulfonamide]
3 | 4.79 | 0.563 | 1.43 | CCc1ccc(OC)c(S(=O)(=O)Nc2noc3ccc(Br)cc23)c1 [Example 135]
4 | > 125 | 2.56 | 60.1 | CCc1ccc(OC)c(S(=O)(=O)Nc2noc3ccccc23)c1 [Example 63, N-(benzo[d]isoxazol-3-yl)-5-ethyl-2-methoxy benzene-sulfonamide]
5 | 56 | 31.1 | 14.9 | O=S(=O)(Nc1noc2cccc(Cl)c12)c1ccc(Br)cc1OC(F)(F)F [Example 32, 4-bromo-N-(4-chlorobenzo[d]isoxazol-3-yl)-2-(trifluoromethoxy) benzenesulfonamide]
6 | > 125 | 24.5 | 85.8 | CCc1ccc(OC)c(S(=O)(=O)Nc2noc3cc(-n4ccnn4)ccc23)c1 [Example 125]
7 | 19.9 | 9.73 | 18.5 | CCc1ccc(OC)c(S(=O)(=O)Nc2noc3c(C4CCCCC4)cccc23)c1 [Example 190]
8 | 9.7 | 2.1 | 5.74 | COc1ccc(Oc2ccccc2)cc1S(=O)(=O)Nc1noc2cccc(OC)c12 [Example 99, 2-Methoxy-N-(4-methoxybenzo[d]isoxazol-3-yl)-5-phenoxybenzenesulfonamide]
9 | > 125 | 46.2 | 11.4 | COc1cc(C)cc(C)c1S(=O)(=O)Nc1noc2cccc(OC)c12 [Example 72, 2-methoxy-N-(4-methoxybenzo[d]isoxazol-3-yl)-4,6-dimethylbenzene sulfonamide]
10 | 69.2 | 1.27 | 0.889 | COc1cc(-c2cc(OC)c3c(NS(=O)(=O)c4c(OC)cccc4OC)noc3c2)ccn1 [Example 249, 2,6-Dimethoxy-N-(4-methoxy-6-(2-methoxypyridin-4-yl)benzo[d]isoxazol-3-yl)benzenesulfonamide]
11 | > 125 | 113 | > 125 | O=S(=O)(Nc1noc2cccc(Cl)c12)c1ccc2nc(O)oc2c1 [Example 8, N-(4-chlorobenzo [d]isoxazol-3-yl)-2-hydroxybenzo[d]oxazole-6-sulfonamide]
12 | 57.6 | 3.9 | 2.76 | COc1cccc(OC)c1S(=O)(=O)Nc1noc2cc(-c3ccncc3)cc(OC)c12 [Example 245, 2,6-Dimethoxy-N-(4-methoxy-6-(pyridin-4-yl)benzo[d]isoxazol-3-yl)benzenesulfonamide]
13 | 37.1 | 10 | 0.852 | Cc1cnc2c(S(=O)(=O)Nc3noc4cccc(Cl)c34)cccc2c1 [Example 118, N-(4-Chlorobenzo[d]isoxazol-3-yl)-3-methylquinoline-8-sulfonamide]
14 | 17.4 | 2.13 | 3 | COc1cccc(OC)c1S(=O)(=O)Nc1noc2c(Br)cc(C)cc12 [Example 239]
15 | > 125 | 2.96 | 21.7 | CCc1ccc(OC)c(S(=O)(=O)Nc2noc3cc(-n4nccn4)ccc23)c1 [Example 130]
16 | 115 | 22.7 | > 125 | Cc1nnc(-c2cccc(S(=O)(=O)Nc3noc4ccccc34)c2)o1 [Example 67, N-(benzo[d]isoxazol-3-yl)-3-(5-methyl-1,3,4-oxadiazol-2-yl)benzene sulfonamide]
17 | > 125 | 7.89 | 17.5 | CCc1ccc(OC)c(S(=O)(=O)Nc2noc3cccc(COC)c23)c1 [Example 110, 5-Ethyl-2-methoxy-N-(4-(methoxymethyl)benzo [d]isoxazol-3-yl)benzenesulfonamide]
18 | 25.5 | 9.44 | 1.76 | O=S(=O)(Nc1noc2cccc(Cl)c12)c1cccc2c1OCC2 [Example 180, N-(4-Chlorobenzo[d]isoxazol-3-yl)-2,3-dihydrobenzofuran-7-sulfonamide]
19 | > 125 | 56.2 | > 125 | CCOc1ccc(CC)cc1S(=O)(=O)Nc1noc2ccccc12 [Example 57, N-(benzo[d]isoxazol-3-yl)-2-ethoxy-5-ethylbenzene sulfonamide]
20 | 41 | 26.8 | 8.42 | O=S(=O)(Nc1noc2cccc(Cl)c12)c1ccc(OCc2ccccc2)cc1 [Example 9, 4-(benzyloxy)-N-(4-chlorobenzo[d]isoxazol-3-yl)benzenesulfonamide]
21 | 87.7 | 15 | 28.3 | COc1cc(C)c(Cl)cc1S(=O)(=O)Nc1noc2ccccc12 [Example 51, N-(benzo[d]isoxazol-3-yl)-5-chloro-2-methoxy-4-methylbenzene sulfonamide]
22 | 59.4 | 29.3 | 41.6 | Cc1ccc(Br)cc1S(=O)(=O)Nc1noc2cccc(Cl)c12 [Example 114, 5-Bromo-N-(4-chlorobenzo[d]isoxazol-3-yl)-2-methylbenzenesulfonamide]
23 | 17.5 | 13.9 | 4.06 | COc1cccc2onc(NS(=O)(=O)c3cccc4c(C)ccnc34)c12 [Example 79, N-(4-methoxybenzo[d]isoxazol-3-yl)-4-methyl quinoline-8-sulfonamide]
24 | > 125 | 123 | > 125 | COC(=O)c1ccc(OC)c(S(=O)(=O)Nc2noc3ccccc23)c1 [Example 50, methyl 3-(N-(benzo[d]isoxazol-3-yl)sulfamoyl)-4-methoxy benzoate]
25 | 96.6 | 3.48 | 5.9 | COc1ccc(-c2cc(OC)c3c(NS(=O)(=O)c4c(OC)cccc4OC)noc3c2)cn1 [Example 247, 2,6-Dimethoxy-N-(4-methoxy-6-(6-methoxypyridin-3-yl)benzo[d]isoxazol-3-yl)benzenesulfonamide]
26 | 65.3 | 5.66 | 22 | CCc1ccc(OC)c(S(=O)(=O)Nc2noc3c(C)cccc23)c1 [Example 187, 5-Ethyl-2-methoxy-N-(7-methylbenzo[d]isoxazol-3-yl)benzenesulfonamide]
27 | 29 | 1.24 | 5.21 | CCc1ccc(OC)c(S(=O)(=O)Nc2noc3cccc(C(F)(F)F)c23)c1 [Example 121, 5-Ethyl-2-methoxy-N-(4-(trifluoromethyl)benzo[d]isoxazol-3-yl)benzenesulfonamide]
28 | > 125 | 12 | 94.2 | CCc1ccc(OC)c(S(=O)(=O)Nc2noc3ccc(-c4cncnc4)cc23)c1 [Example 238, 5-Ethyl-2-methoxy-N-(5-(pyrimidin-5-yl)benzo[d]isoxazol-3-yl)benzenesulfonamide]
29 | > 125 | 49.4 | > 125 | Cc1c(Cl)cccc1S(=O)(=O)Nc1noc2ccccc12 [Example 59, N-(benzo[d]isoxazol-3-yl)-3-chloro-2-methylbenzene-sulfonamide]
